Data from US4016280A, “4,4-Diarylpiperidine compositions and use” (Byk Gulden Lomberg Chemische Fabrik GmbH, priority 1969, dated 1977).
Read-outs that look alike come from different tables or passages of the source.

What was measured:
[1] = Acute toxicity in the albino mouse; details: in vivo
Description: (§1) As stated above, the compounds of formula I have advantageous central nervous system stimulating properties. Side-effects, as they are encountered on administration of amphetamine-type stimulants, are produced to a much lesser extent by the 4,4-diphenylpiperidine compounds, if at all. […] The tests were carried out according to known and accepted pharmacological standard test methods.
a Acute toxicity 150 mg./kg. 100 mg./kg.

albino mouse [2] = experiment: Saliva secretion; type: in vivo
Description: as §1
No secretion Pronounced

[3] = Potentiating effect on noradrenaline; details: in vivo
Description: as §1

Tachyphylaxis = details: in vivo
Description: as §1
g Tachyphylaxis None Pronounced

Exophthalmus = details: in vivo
Description: as §1
f Exophthalmus Absent Present

albino mouse [4] = experiment: Locomotory activity (restlessness in movements); type: in vivo; details: albino mouse 5 mg/kg. perorally
Description: as §1

[5] = Increase in blood pressure; type: in vivo; details: rats and dogs
Description: as §1
pressure (rats and increase

albino mouse [6] = experiment: Antagonism in the albino mouse of reserpine (preventive and curative ptosis/sedation); type: in vivo; details: reserpine 2mg/kg sc., drug per os; for ED50: Mus musculus, po
Description: (§2) Antagonism in the albino mouse
(§3) Com- Preventive Curative catalepsy
(§4) of tion dation p.o.) i.p.)
(§5) *drugs administered per os
(§6) **administered in doses from 50 to 300 mg/kg

albino mouse [7] = experiment: Antagonism in the albino mouse of perphenazine catalepsy; type: in vivo; details: Mus musculus, po; perphenazine 10 mg/kg p.o.; drug per os; Examples 28, 29: 50 to 300 mg/kg
Description: as §2, §3, §4, §5, §6

[8] = Randall and Lehmann, J. Pharmacol. Exp. Therap. 93, 314 (1948), cited from earlier work
[9] = Marshall, Brit. J. Pharmacol. 10, 270 (1955), technique of Schild, cited from earlier work
albino mouse [10] = experiment: General behaviour of the albino mouse with different doses; type: in vivo; details: albino mouse; for Locomotory activity / Restlessness Stereotype / Salivation / Vigilance: different doses per os, Examples 28, 29: 50 to 300 mg/kg
Description: Acute toxi- General behaviour of the albino
city in the mouse with different doses*
as §5, §6

albino mouse [11] = experiment: Antagonism in the albino mouse of tremorine tremor; type: in vivo; details: tremorine 15 mg/kg i.p., drug per os, Examples 28, 29: 50 to 300 mg/kg; for ED50: Mus musculus, po
Description: as §2, §4, §5, §6

[12] = mouse, iv, Table 2, i.v., read-out: Acute toxicity in the albino mouse LD50 i.v.
[13] = mouse, po, Table 2, p.o., read-out: Acute toxicity in the albino mouse LD50 p.o.
[14] = Examples 28, 29: 50 to 300 mg/kg, read-out: Reserpine antagonism, Curative Sedation ED50
[15] = Examples 28, 29: 50 to 300 mg/kg, read-out: Reserpine antagonism, Curative ptosis ED50
[16] = read-out: Reserpine antagonism, Preventive Sedation ED50
[17] = read-out: Reserpine antagonism, Preventive ptosis ED50
[18] = listed as 1 methyl-4,4-diphenylpiperidine
[19] = Examples 28, 29: 50 to 300 mg/kg

CC(N)Cc1ccccc1 (stereo not drawn) [Amphetamine, reference compound]
LD50 ([1]; po, Table 1, albino mouse perorally, read-out: Acute toxicity): 100 mg/kg | Saliva secretion (albino mouse [2]): Pronounced | Potentiating effect on noradrenaline [3]: Present | Tachyphylaxis (Tachyphylaxis): Pronounced | Exophthalmus (Exophthalmus): Present | Locomotory activity (restlessness in movements), increase by (albino mouse [4]): 100% | Increase in blood pressure [5]: Pronounced

CN1CCC(c2ccccc2)(c2ccccc2)CC1 [Example 1, 1-Methyl-4,4-diphenylpiperidine]
LD50 [1, 12]: 45 mg/kg | LD50 [1, 13]: 140 mg/kg | ED50 (albino mouse [6]; [14]): 10 mg/kg | ED50 (albino mouse [6]; [15]): > 50 mg/kg | ED50 (albino mouse [6]; [16]): 3 mg/kg | ED50 (albino mouse [6]; [17]): 4 mg/kg | ED50 (albino mouse [7]): 3 mg/kg | Analgesic activity ([8]; listed as 1-methyl-4,4-diphenylpiperidine): devoid of analgesic activity | Analgesic activity [8, 18]: devoid of analgesic action | Antihistaminic activity ([9]; listed as 1-Methyl-4,4-diphenylpiperidine): devoid of any therapeutically utilizable antihistaminic activity | Antihistaminic activity [9, 18]: devoid of any therapeutically-utilizable antihistaminic activity | Locomotory activity (in words) (albino mouse [10]): only slightly increased | Restlessness, stereotypia or salivation (in words) (albino mouse [10]): without causing restlessness, sterotypia or salivation | Vigilance of the animal (in words) (albino mouse [10]): strong increase | Locomotory activity (albino mouse [10]): (+) | Restlessness Stereotype (albino mouse [10]): .phi. (no effect) | Salivation (albino mouse [10]): .phi. (no effect) | Vigilance (albino mouse [10]): ++ | ED50 (albino mouse [11]): 1 mg/kg

CCN1CCC(c2ccccc2)(c2ccccc2)CC1 [Example 3, 1-Ethyl-4,4-diphenylpiperidine]
LD50 [1, 12]: 45 mg/kg | LD50 [1, 13]: 150 mg/kg | ED50 (albino mouse [6]; [14]): 50 mg/kg | ED50 (albino mouse [6]; [15]): > 50 mg/kg | ED50 (albino mouse [6]; [16]): 5 mg/kg | ED50 (albino mouse [6]; [17]): 5 mg/kg | ED50 (albino mouse [7]): 2 mg/kg | Locomotory activity (albino mouse [10]): (+) | Restlessness Stereotype (albino mouse [10]): .phi. (no effect) | Salivation (albino mouse [10]): .phi. (no effect) | Vigilance (albino mouse [10]): ++ | ED50 (albino mouse [11]): 1 mg/kg

c1ccc(CCN2CCC(c3ccccc3)(c3ccccc3)CC2)cc1 [Example 5, 1-Phenethyl-4,4-diphenylpiperidine]
LD50 [1, 12]: 19 mg/kg | ED50 (albino mouse [6]; [16]): 3 mg/kg | ED50 (albino mouse [6]; [17]): 3 mg/kg | Reserpine antagonism, Curative Sedation ED50 (albino mouse [6]; [19]): (+) | Reserpine antagonism, Curative ptosis ED50 (albino mouse [6]; [19]): (+) | Locomotory activity (albino mouse [10]): - (decrease) | Restlessness Stereotype (albino mouse [10]): .phi. (no effect) | Salivation (albino mouse [10]): .phi. (no effect) | Vigilance (albino mouse [10]): + (increase) | Remark under Locomotory activity (Ataxy) (albino mouse [10]; per os): Ataxy | Tremorine tremor antagonism ED50 (albino mouse [11]): .phi. (no effect)

COCCCN1CCC(c2ccccc2)(c2ccccc2)CC1 [Example 7, 1-(3-Methoxypropyl)-4,4-diphenylpiperidine]
LD50 [1, 12]: 30 mg/kg | Locomotory activity (in words) (albino mouse [10]): only slightly increased | Restlessness, stereotypia or salivation (in words) (albino mouse [10]): without causing restlessness, sterotypia or salivation | Vigilance of the animal (in words) (albino mouse [10]): strong increase | Locomotory activity (albino mouse [10]): (+) | Restlessness Stereotype (albino mouse [10]): .phi. (no effect) | Salivation (albino mouse [10]): .phi. (no effect) | Vigilance (albino mouse [10]): ++ | ED50 (albino mouse [11]): 3 mg/kg

OCCN1CCC(c2ccccc2)(c2ccccc2)CC1 [Example 9, 1-(2-Hydroxyethyl)-4,4-diphenylpiperidine]
LD50 [1, 12]: 33 mg/kg | ED50 (albino mouse [6]; [14]): 15 mg/kg | ED50 (albino mouse [6]; [16]): 8 mg/kg | ED50 (albino mouse [6]; [17]): 10 mg/kg | Reserpine antagonism, Curative ptosis ED50 (albino mouse [6]; [19]): (+) | ED50 (albino mouse [7]): 15 mg/kg | Locomotory activity (in words) (albino mouse [10]): only slightly increased | Restlessness, stereotypia or salivation (in words) (albino mouse [10]): without causing restlessness, sterotypia or salivation | Vigilance of the animal (in words) (albino mouse [10]): strong increase | Locomotory activity (albino mouse [10]): (+) | Restlessness Stereotype (albino mouse [10]): .phi. (no effect) | Salivation (albino mouse [10]): .phi. (no effect) | Vigilance (albino mouse [10]): ++ | ED50 (albino mouse [11]): 10 mg/kg
